This is an account of results in patent US5296481A, “Treatment process for promoting weight loss employing a substituted Δ 5” (Humanetics Corporation, priority 1992, dated 1994).

In experiment [1] the test system is Mitochondrial G3P-DH (glycerol 3-phosphate dehydrogenase), rat liver. Kind of experiment: Mitochondrial G3P-DH activity in liver of steroid-fed rats (enzyme induction in rat liver by C19 steroids). The experiment is classed as in vivo, rat (male Sprague Dawley). The conditions noted are these: 6 days, rat liver mitochondria. An excerpt: (§1) Administration of Hormone: Male Sprague Dawley rats weighing 125-150 gm were obtained from Sasco Inc. of Oregon, Wis. The rats were allowed free access to water and Purina Rat Chow pellets for the first day after arrival Administration of the steroids began on day two. The steroids were either administered orally (combined with the Purina Rat Chow) or injected intraperitoneal as set forth in Table 1 for 6 days.
(§2) Preparation of Liver Mitochondria and Cytosol. The treated rats were sacrificed by decapitation after 6 days of treatment. The livers were excised, placed in 10 ml of a buffer consisting of 250 mM mannitol, 70 mM sucrose, and 3 mM Hepes (hereinafter MSH buffer) at pH 7.4, weighed, removed from the buffer, minced with scissors, washed with MSH buffer, suspended in MSH buffer at a ratio of 1 gram minced liver to 5 ml MSH buffer, and homogenized with a Potter-Elvehjem rotary homogenizer.
The Mitochondria fraction was prepared by the method described in Johnson, D. and Lardy, H. A., Methods Enzymology, vol. 10, pp 94-96 (1967) which is hereby incorporated by reference. Briefly, liver homogenate was centrifuged in a Beckman Model J2-21 centrifuge, JA-20 rotor at 750 g for 10 minutes and the resulting supernatant solution centrifuged at 15,000 g for an additional 10 minutes. The resulting mitochondrial pellets were washed twice with MSH buffer, resuspended in 0.8 to 1 ml of a 35 wt % aqueous glycerol solution, and stored at -70° C.
(§3) Protein concentrations in the resultant preparations were determined by the Biuret method described in Layne E., Methods Enzymology, vol. 3, pp 450451 (1957) which is hereby incorporated by reference. Briefly, the protein concentrations were determined by treating a dilute protein solution with copper tartrate solution and measuring the optical density at 540 nm.
Enzyme Assays. Mitochondrial G3P-DH activity was measured by the method described in Wernette, M. E., Ochs, R. S., and Lardy, H. A., J. Biol. Chem., vol. 256, pp 12767-12771 (1981) which is a modified version of the method described in Gardner, R. S., Anal. Biochem., vol. 59, pp 272-276 (1974). Both references are hereby incorporated by reference. Briefly, aliquots of the previously prepared mitochondria containing 0.1 to 0.2 mg of protein were incubated in a test tube containing 50 mM sn-glycerol-3-P,50 mM potassium phosphate (pH 7.0), 1 mM KCN, and 0.2% p-iodonitrotetrazolium violet in a total volume of 0.4 ml for 30 min at 37° C. The incubating mitochondria were continuously agitated during the incubation period by a Dubnoff shaker agitated at 100 cycles/min. Incubation was ceased by the addition of 0.6 ml of 1M acetic acid to the test tube. The iodoformazan formed during the incubation period was extracted into 2 ml of ethyl acetate by adding the ethyl acetate to the test tube, mixing thoroughly, and then decanting the ethyl acetate containing the iodoformazan from the test tube. The optical densities of the iodoformazan containing ethyl acetate layers were read at 490 nm by means of an On Line Instrument Systems, Model 3820 Data System, Spectrophotometry, Cary--15, Version 4 08. An extinction coefficient value of 2.01×10^4 /(M cm) for the iodoformazan product in ethyl acetate was used to calculate enzyme activities.

Experiment [2] has as its system Cytosolic malic enzyme, rat liver. The experiment is described as follows: Cytosolic malic enzyme activity in liver of steroid-fed rats (enzyme induction in rat liver by C19 steroids). The experiment is classed as in vivo, rat (male Sprague Dawley). The conditions noted are these: 6 days, rat liver cytosol.
Description: as §1, §2
The Cytosolic fraction was obtained by recentrifuging the previously centrifuged supernatant solution at 100,000 g for 30 minutes in a Beckman Model L2 ultracentrifuge, type 40 rotor. The resultant supernatant solution was stored at -70° C.
as §3
Cytosolic malic enzyme activity was measured in accordance with the method described in Hsu, R. Y. and Lardy, H. A., Methods Enzymol., vol. 8, pp 230-235 (1967). Briefly, aliquots of the previously prepared cytosol containing 0.1 to 0.5 mg of protein were incubated in a test tube containing 0.8 mM malate, 67 mM triethanolamine buffer (pH 7.4), 4 mM MnCl2, and 0.2 mM NADP in a total volume of 1 ml for 3 min at 26° C. Activity of malic enzyme was calculated from the rate of change in optical density measured at 340 nm from 0.5 to 2 minutes with an On Line Instrument Systems, Model 3820 Data System, Spectrophotometry, Cary--15, Version 4.08.

SMILES strings stand for the structures.

For the compound `C[C@]12CC[C@H](O)CC1=CC(=O)[C@@H]1[C@@H]2CC[C@]2(C)C(=O)CC[C@@H]12` [7-keto DHEA, Δ5-Androstene-3β-ol-7,17-dione], the “G3P-DH (% control)” value in experiment [1] (0.01 wt % steroid in diet) was found to be 183 % control; in experiment [1] (0.05 wt % steroid in diet), 439 % control; in experiment [1] (0.0575 wt % steroid in diet) it was 224 % control; in experiment [1] (0.1 wt % steroid in diet), 220 % control. For the same compound, the “Malic Enzyme (% control)” value is 229 % control in experiment [2] (0.01 wt % steroid in diet), 449 % control in experiment [2] (0.05 wt % steroid in diet), 341 % control in experiment [2] (0.0575 wt % steroid in diet) and 350 % control in experiment [2] (0.1 wt % steroid in diet).

Take `C[C@]12CC[C@H](O)CC1=CC[C@@H]1[C@@H]2CC[C@]2(C)C(=O)CC[C@@H]12` [DHEA, Δ5-androstene 3β-hydroxy, 17-one, reference compound]: the “G3P-DH (% control)” value was 139 % control in experiment [1] (0.01 wt % steroid in diet), 251 % control in experiment [1] (0.05 wt % steroid in diet), 265 % control in experiment [1] (0.1 wt % steroid in diet) and 380 % control in experiment [1] (0.2 wt % steroid in diet). Also, the “Malic Enzyme (% control)” value was 64 % control in experiment [2] (0.01 wt % steroid in diet), 337 % control in experiment [2] (0.05 wt % steroid in diet), 394 % control in experiment [2] (0.1 wt % steroid in diet) and 512 % control in experiment [2] (0.2 wt % steroid in diet).

In the case of `C[C@]12CC[C@H]3[C@@H]([C@H](O)C=C4C[C@@H](O)CC[C@@]43CO)[C@@H]1CCC2=O` [Δ5 Androstene 3β,7α,19-ol-17-one, reference compound], the “G3P-DH (% control)” value in experiment [1] (0.1 wt % steroid in diet) came to 117 % control. Besides, the “Malic Enzyme (% control)” value in experiment [2] (0.1 wt % steroid in diet) was found to be 118 % control.

Take `C[C@]12CC[C@H](O)CC1=C[C@@H](O)[C@@H]1[C@@H]2CC[C@]2(C)C(=O)CC[C@@H]12` [Δ5 Androstene 3β,7α-ol-17-one, Δ5-Androstene 3β,7α-diol-17-one]: the “G3P-DH (% control)” value is 308 % control in experiment [1] (0.033 wt % steroid in diet) and 292 % control in experiment [1] (0.05 wt % steroid in diet). The “Malic Enzyme (% control)” value in experiment [2] (0.033 wt % steroid in diet) is reported as 374 % control; in experiment [2] (0.05 wt % steroid in diet) it was 423 % control.

On to `C[C@]12CC[C@H]3[C@@H]([C@H](O)C=C4C[C@@H](O)CC[C@@]43C)[C@@H]1CC[C@@H]2O` [Δ5-Androstene 3β,7α,17β-triol], for which the “G3P-DH (% control)” value in experiment [1] (0.01 wt % steroid in diet) came to 99 % control; in experiment [1] (0.1 wt % steroid in diet), 227 % control. Also, the entries for the “Malic Enzyme (% control)” value in experiment [2] (0.01 wt % steroid in diet) and in experiment [2] (0.1 wt % steroid in diet) were 108 % control and 611 % control, respectively.

Consider `C[C@]12CC[C@H]3[C@@H](C(=O)C=C4C[C@@H](O)CC[C@@]43C)[C@@H]1CC[C@@H]2O` [Δ5-Androstene 3β,17β-diol-7-one, Δ5-Androstene-3β,17β-diol-7-one], for which the “G3P-DH (% control)” value is listed as 130 % control in experiment [1] (0.01 wt % steroid in diet), 360 % control in experiment [1] (0.05 wt % steroid in diet) and 286 % control in experiment [1] (0.1 wt % steroid in diet). Further, the figures for the “Malic Enzyme (% control)” value in experiment [2] (0.01 wt % steroid in diet) and in experiment [2] (0.05 wt % steroid in diet) were 175 % control and 305 % control, respectively.

As for `CC(=O)O[C@H]1CC[C@@]2(C)C(=CC(=O)[C@@H]3[C@@H]2CC[C@]2(C)C(=O)CC[C@@H]32)C1` [Δ5-Androstene-3β-ol-7,17-one acetate, Δ5-Androstene 3β-acetoxy-7,17-dione], the “G3P-DH (% control)” value in experiment [1] (0.115 wt % steroid in diet) was 261 % control. In experiment [2] (0.115 wt % steroid in diet), the “Malic Enzyme (% control)” value was 447 % control.

As for `CC1C=C2C[C@@H](O)CC[C@]2(C)[C@H]2CC[C@]3(C)C(=O)CC[C@H]3[C@H]12` (stereo partly drawn) [Δ5-Androstene-3β-ol-7-methyl-17-one, reference compound], the “G3P-DH (% control)” value in experiment [1] (0.1 wt % steroid in diet) was found to be 91 % control. Also, the “Malic Enzyme (% control)” value in experiment [2] (0.1 wt % steroid in diet) is recorded as 121 % control.

As for `CC(=O)O[C@H]1CC[C@@]2(C)C(=CC(=O)[C@H]3[C@@H]4CC[C@H](OC(C)=O)[C@@]4(C)CC[C@@H]32)C1` [Δ5-androstene 3β,17β-diol-7-one diacetate], the “G3P-DH (% control)” value in experiment [1] (0.01 wt % steroid in diet) was 173 % control; in experiment [1] (0.13 wt % steroid in diet) it was 232 % control. The “Malic Enzyme (% control)” value in experiment [2] (0.01 wt % steroid in diet) is given as 119 % control; in experiment [2] (0.13 wt % steroid in diet), 452 % control.
